Source: ChEMBL document CHEMBL1155686, “Luteolin, a compound with adenosine A(1) receptor-binding activity, and chromone and dihydronaphthalenone constituents from Senna siamea” (J Nat Prod, 2000)

Columns and labels:
Adenosine receptor A1 [1] = biological target: T1, Adenosine receptor A1 (Rattus norvegicus, UniProt P25099); experiment: Displacement of [3H]DPCPX from adenosine A1 receptor in rat brain cortex membrane; assay type: cell membranes
T1 sequence (P25099 whole entry): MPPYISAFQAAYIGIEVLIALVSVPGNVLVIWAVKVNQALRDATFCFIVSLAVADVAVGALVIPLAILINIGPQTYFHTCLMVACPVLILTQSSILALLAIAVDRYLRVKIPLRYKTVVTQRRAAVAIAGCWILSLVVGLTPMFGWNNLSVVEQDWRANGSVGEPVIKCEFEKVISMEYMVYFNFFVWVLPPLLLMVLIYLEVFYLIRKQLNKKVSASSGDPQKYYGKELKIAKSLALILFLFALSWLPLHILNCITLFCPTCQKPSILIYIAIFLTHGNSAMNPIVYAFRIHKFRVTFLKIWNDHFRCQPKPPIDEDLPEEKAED

Adenosine receptor A1 [2] = biological target: T1, Adenosine receptor A1; experiment: Displacement of [3H]DPCPX from adenosine A1 receptor in rat brain cortex membrane in presence of 0.5 mM GTP; assay type: cell membranes

| Compound | Ki (Adenosine receptor A1 [1]) [µM] | Ki (Adenosine receptor A1 [2]) [µM] |
| --- | --- | --- |
| CC(=O)Cc1cc(O)cc2oc(CO)cc(=O)c12 | > 50 | – |
| O=c1cc(-c2ccc(O)c(O)c2)oc2cc(O)cc(O)c12 [LUTEOLIN] | 1.66 | 1.55 |

Second part, led by results:

| Ki (Adenosine receptor A1 [1]) [µM] | Compound | Ki (Adenosine receptor A1 [2]) [µM] |
| --- | --- | --- |
| > 50 | CC(=O)Cc1cc(O)cc2oc(C)cc(=O)c12 | – |
| > 50 | CC(=O)[C@@H]1c2cc(O)cc(O)c2C(=O)C[C@]1(C)O (relative stereo) | – |
| > 50 | CC(=O)[C@@H]1c2cc(O)cc(O)c2C(=O)C[C@@]1(C)O (relative stereo) | – |
